# Laboratory results from patent US4755522A, “Derivatives of N-[3-(2,4,6-trimethoxybenzoyl)propyl]piperidine, and their use in therapeutics” (priority 1986, dated 1988).
# Where “and” joins values, the source holds several entries; their conditions need not be identical. Identical values can stand only once. Entries after “also recorded” stand apart in the source; their conditions may differ. Like-named read-outs stand apart in the source and are kept apart here.
# How the values were obtained:
# cardio-vascular system = experiment: Action on the cardio-vascular system in the anaesthetized dog; format: in vivo
# Procedure: (b) Action on the cardio-vascular system (in the dog).
# (§1) 3 dogs (average weight, 12 kg) anaesthetized with nembutal, receive the compound by intra-duodenal route at successive doses of 0.1-0.5-2.5-10 and 20 mg/kg.
# The arterial pressure, the cardiac rate, the femoral arterial flow, the vertebral arterial flow, the rectal and skin temperatures are all measured. The coloration of the skin is observed.
# (§2) 3 dogs (average weight, 14 kg) anaesthetized with nembutal, received the CRL 41,390 by intra-duodenal route, at successive doses of 0.1-0.5-1-2.5-5-10-20 mg/kg, then a supplementary dose of 10 mg/kg I.V.
# The arterial pressure, the cardiac frequency, the femoral arterial flow, the vertebral arterial flow, the rectal and cutaneous temperatures, were measured. The coloration of the skin was observed.
# [1] = test system: arrhythmias with aconitine; experiment: Arrhythmias with aconitine in the guinea-pig; format: in vivo
# Procedure: (§3) The compound was administered by intravenous route at a dose of 10 mg/kg to a series of 10 albino guinea-pigs of 380 to 495 g, anaesthetized with urethane.
# (§4) 5 minutes later, they receive an I.V. perfusion of the product causing arrhythmia at a dosage of 0.09 mg/min. in a volume of 0.6 ml/min.
# (§5) The compound is compared with quinidine at a dose of 5 mg/kg I>V> and with a series of controls.
# (§6) Lots are drawn for the treatments.
# B--Action on arrhythmias with aconitine.
# isoprenaline = experiment: Effects of isoprenaline on arterial pressure and cardiac rate after the compound (dog); format: in vivo
# Procedure: as §2
# cardiac arrhythmias = experiment: Treatment of cardiac arrhythmias in man; format: in vivo; details: capsules or tablets 200 mg, 3 to 4 per day
# Procedure: The compound of example 1 in the form of capsules or tablets with doses of 200 mg, 3 to 4 per day, has given good results in the treatment of cardiac arrhythmias in man.
# ectopic heart-beats = experiment: Ectopic heart-beats in dogs with coronary artery ligature a few weeks earlier; format: in vivo, dog; details: I.D.; for minimal effective dose: Canis lupus familiaris, intraduodenal, read-out: dose re-establishing a normal rhythm
# Procedure: as §1
# Two of these three dogs having undergone a ligature of a coronary artery a few weeks earlier still presented numerous ectopic heart-beats.
# [2] = test system: arrhythmias caused by injection of adrenaline; experiment: Arrhythmias caused by adrenaline + petroleum ether (dog); format: in vivo; details: 39.1 mg/kg I.D.
# Procedure: In the third dog, arrhythmias were caused by injection of adrenaline (10 mcg/kg), preceded by an intra-trachealinjection of petroleum ether (0.1 ml/kg before and after administration of the 39.1 mg/kg (in cumulative doses) of the compound. On the E.C.G., the number of beats of sinusoidal origin and the number of ectopic beats per minute are counted which follow the injection of adrenaline. |Dose of compound | Number of beats in 1 minute |mg/kg I.D. ectopic sinusoidal
# [3] = test system: arrhythmias caused by adrenaline; experiment: Arrhythmias caused by adrenaline I.V., 4 days after coronary ligature (dog); format: in vivo
# Procedure: 4 days after the ligature of the coronary, this same dog received injections I.V. of 5 mcg/kg of adrenaline which caused arrhythmias. The number of ectopic beats caused by adrenaline reduces starting from the dose of 5 mg/kg I.V. while the percentage of ectopic beats referred to the total cardiac frequency is 79% in comparison with 100% in the control and 46% 10 minutes after the dose of 10 mg/kg (64% after 40 minutes, 88% after 90 minutes).
# [4] = test system: left descending coronary artery ligature; experiment: Dog with left descending coronary artery ligatured 24 hours earlier, I.V.; format: in vivo
# Procedure: In a dog of which the left descending coronary artery had been ligatured 24 hours earlier, the compound was administered by intravenous route at increasing doses: 0.5-1-2.5-5-10 mg/kg. every 30 minutes.
# awakened dog = experiment: Toxic effects in the awakened dog, I.V. cumulative; format: in vivo
# [5] = test system: arrhythmias with K-strophanthin; experiment: Arrhythmias with K-strophanthin in the guinea-pig; format: in vivo; details: 10 mg/kg I.V.
# Procedure: as §3, §4, §5, §6
# A--Action on arrhythmias with K-strophanthin.
# [6] = test system: ventricular fibrillation (V.F.) by inhalation of chloroform; experiment: Lawson's test in mice (ventricular fibrillation by inhalation of chloroform); format: in vivo
# Text: (c) Anti-arrhythmic action in the mouse. Research on the anti-arrhythmic activity by intraperitoneal route on Lawson's test in mice (ventricular fibrillation (V.F.) by inhalation of chloroform, all or nothing response) has given the following results (10 mice per dose).
# mice = format: in vivo; details: 260 mg/kg I.P. (footnote *)
# noradrenaline = experiment: Hypertension with noradrenaline after the compound (dog); format: in vivo
# Procedure: as §1, §2
# Hypertension to noradrenaline is not modified: at 2 mcg/kg of noradrenaline, the systolic arterial pressure passes, after administration of the product, from 160 to 290 mmHg/161 to 289 mmHg in the control.
smiles,measurement,setting,value
"COc1cc(OC)c(C(=O)CCCN2CCCC(CO)C2)c(OC)c1.Cl (stereo not shown) [CRL 41,391, N-[3-(2,4,6-trimethoxybenzoyl)propyl]-3-piperidinemethanol hydrochloride]",effect on heart rate,cardio-vascular system; 20 mg/kg I.D.,slightly reduces the heart rate
same,minimal effective dose,"cardio-vascular system; Canis lupus familiaris, intraduodenal, I.D., read-out: dose from which femoral flow increases",5 mg/kg
same,effect on rectal and cutaneous temperatures,cardio-vascular system; I.D.,does not modify the rectal and cutaneous temperatures
same,effect on vertebral flow,cardio-vascular system; I.D.,reduces the vertebral flow
same,effect on femoral flow,"cardio-vascular system; I.D., starting at 5 mg/kg",increases the femoral flow
same,effect on the arterial pressure,"cardio-vascular system; intra-duodenal, successive doses to 20 mg/kg, nembutal",no effect on the arterial pressure
same,increase of cardiac frequency (average),[1]; 10 mg/kg I.V.,12 beats/minute
same,action on aconitine compared with quinidine,[1]; 10 mg/kg I.V. vs quinidine 5 mg/kg,greater than that observed after pre-treatment with 5 mg/kg of quinidine
same,"cardiac frequency (conclusion, K-strophanthin and aconitine)","[1]; 10 mg/kg I.V., anaesthetized guinea-pig",without modifying or with very moderate increase in the cardiac frequency
same,appearance of incidents in the E.C.G. due to aconitine,"[1]; 10 mg/kg I.V., hydrochloride",significantly retards; also recorded: significantly delays
same,"diastolic arterial pressure after the product, before isoprenaline","isoprenaline; 39.1 mg/kg I.D. cumulative, control 120",107 mmHg
same,"cardiac rate after the product, before isoprenaline","isoprenaline; 39.1 mg/kg I.D. cumulative, control 157",160 beats/minute
same,"diastolic arterial pressure after the product, with isoprenaline","isoprenaline; 10 mcg/kg isoprenaline I.V., 39.1 mg/kg I.D. cumulative, control 37",36 mmHg
same,change of diastolic arterial pressure with isoprenaline,"isoprenaline; 10 mcg/kg isoprenaline I.V., 39.1 mg/kg I.D. cumulative, control 83",71 mmHg
same,"cardiac rate after the product, with isoprenaline","isoprenaline; 10 mcg/kg isoprenaline I.V., 39.1 mg/kg I.D. cumulative, control 273",255 beats/minute
same,effects of isoprenaline on arterial pressure and cardiac rate,isoprenaline; after accumulated dose 39.1 mg/kg I.D.,very slightly reduced
same,treatment of cardiac arrhythmias in man,cardiac arrhythmias,good results
same,minimal effective dose,ectopic heart-beats; one dog,2.5 mg/kg
same,minimal effective dose,ectopic heart-beats; the other dog,10 mg/kg
same,normal rhythm,ectopic heart-beats; two dogs,re-established a normal rhythm in these two dogs
same,number of ectopic beats caused by adrenaline+petroleum ether,[2],strongly reduces the number of ectopic beats
same,"Number of beats in 1 minute, sinusoidal",[2]; 35 at dose 0,173
same,"Number of beats in 1 minute, ectopic",[2]; 163 at dose 0,26
same,ectopic beats referred to the total cardiac frequency,"[3]; 5 mg/kg I.V., control 100%",79%
same,ectopic beats referred to the total cardiac frequency,"[3]; 10 mg/kg I.V., after 40 minutes",64%
same,ectopic beats referred to the total cardiac frequency,"[3]; 10 mg/kg I.V., after 90 minutes",88%
same,ectopic beats referred to the total cardiac frequency,[3]; 10 minutes after 10 mg/kg I.V.,46%
same,minimal effective dose,"[3]; Canis lupus familiaris, iv, I.V., adrenaline 5 mcg/kg I.V., read-out: dose from which ectopic beats caused by adrenaline are reduced",5 mg/kg
same,sinusoidal beats,[4]; 2.5 mg/kg I.V.,≥ 5%
same,sinusoidal beats,"[4]; 5 mg/kg I.V., 5 minutes after injection",19%
same,vomitting,[4]; 10 mg/kg I.V.,brief vomitting
same,sinusoidal beats,[4]; 20 minutes after the injection,41%
same,sinusoidal beats,[4]; 40 minutes,25%
same,sinusoidal beats,[4]; 60 minutes,15%
same,minimal effective dose,"[4]; Canis lupus familiaris, iv, I.V., zero sinusoidal beats in the control, read-out: dose from which sinusoidal beats increase",2.5 mg/kg
same,change of cardiac frequency,[4]; after 10 mg/kg I.V.,-25%
same,cardiac frequency,"[4]; after 10 mg/kg I.V., from 231",174 beats/minute
same,nictitating membrane,awakened dog; 70 mg/kg I.V. total,released for 10 minutes
same,"vomiting, cumulative dose","awakened dog; I.V., 5 minutes after the injection, hydrochloride",40 mg/kg and 70 mg/kg
same,somnolence,"awakened dog; I.V., total 70 mg/kg",a certain somnolence was observed
same,appearance of incidents in the E.C.G. due to K-strophanthin,[5],significantly delays
same,cardiac frequency,[5],does not significantly modify the cardiac frequency
same,% of mice not presenting V.F.,[6]; 5 mg/kg I.P.,22%
same,% of mice not presenting V.F.,[6]; 10 mg/kg I.P.,50%
same,% of mice not presenting V.F.,[6]; 20 mg/kg I.P.,70%
same,convulsions,mice,convulsions
same,"systolic pressure after the product, before noradrenaline","noradrenaline; 39.1 mg/kg I.D. cumulative, control 153",149 mmHg
same,"systolic pressure after the product, with noradrenaline","noradrenaline; 2 mcg/kg noradrenaline I.V., 39.1 mg/kg I.D. cumulative, control 271",256 mmHg
same,hypertension with noradrenaline,noradrenaline; after 39.1 mg/kg I.D. cumulative,slightly reduced
